The text below walks through data of ChEMBL document CHEMBL4020781, “Discovery of potent and orally active 1,4-disubstituted indazoles as novel allosteric glucokinase activators” (Bioorg Med Chem Lett, 2017).

The structures appear in SMILES notation. The source made the active and inactive calls. The calls are words filed in the database; no cut-off is given here.

For one series, the target named is T1, Hexokinase-4 (Homo sapiens, UniProt P35557).
T1 sequence (P35557 whole entry): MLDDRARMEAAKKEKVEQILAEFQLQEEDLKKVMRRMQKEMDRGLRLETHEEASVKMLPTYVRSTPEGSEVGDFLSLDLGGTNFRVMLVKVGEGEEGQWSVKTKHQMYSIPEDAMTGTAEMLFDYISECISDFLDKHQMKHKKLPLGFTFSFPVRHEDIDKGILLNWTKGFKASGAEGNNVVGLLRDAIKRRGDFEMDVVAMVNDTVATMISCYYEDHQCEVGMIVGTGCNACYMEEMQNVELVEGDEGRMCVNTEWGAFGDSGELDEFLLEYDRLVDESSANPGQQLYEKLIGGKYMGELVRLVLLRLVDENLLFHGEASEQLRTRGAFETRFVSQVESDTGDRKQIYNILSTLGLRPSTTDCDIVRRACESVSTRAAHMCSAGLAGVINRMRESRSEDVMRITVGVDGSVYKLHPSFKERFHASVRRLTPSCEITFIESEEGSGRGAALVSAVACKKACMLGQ
As to the kind of experiment: Activation of full length human C-terminal FLAG-tagged glucokinase (12 to 465 residues) expressed in Escherichia coli DH10b using glucose as substrate after 60 mins in presence of ATP by kinase-glo luminescence assay.

Series [1] addresses T2, Hexokinase-4 (Homo sapiens) (UniProt P35557).
T2 sequence (whole entry): T1 sequence (P35557 whole entry)
As to the kind of experiment: Activation of full length human C-terminal FLAG-tagged glucokinase (12 to 465 residues) expressed in Escherichia coli DH10b using glucose as substrate after 60 mins in presence of ATP by kinase-glo luminescence assay relative to control.

In another series the target is hERG (KCNH2) (Homo sapiens, UniProt Q12809). As to the kind of experiment: Inhibition of human ERG at 10 uM.
Sequence of hERG (KCNH2) (Q12809 whole entry): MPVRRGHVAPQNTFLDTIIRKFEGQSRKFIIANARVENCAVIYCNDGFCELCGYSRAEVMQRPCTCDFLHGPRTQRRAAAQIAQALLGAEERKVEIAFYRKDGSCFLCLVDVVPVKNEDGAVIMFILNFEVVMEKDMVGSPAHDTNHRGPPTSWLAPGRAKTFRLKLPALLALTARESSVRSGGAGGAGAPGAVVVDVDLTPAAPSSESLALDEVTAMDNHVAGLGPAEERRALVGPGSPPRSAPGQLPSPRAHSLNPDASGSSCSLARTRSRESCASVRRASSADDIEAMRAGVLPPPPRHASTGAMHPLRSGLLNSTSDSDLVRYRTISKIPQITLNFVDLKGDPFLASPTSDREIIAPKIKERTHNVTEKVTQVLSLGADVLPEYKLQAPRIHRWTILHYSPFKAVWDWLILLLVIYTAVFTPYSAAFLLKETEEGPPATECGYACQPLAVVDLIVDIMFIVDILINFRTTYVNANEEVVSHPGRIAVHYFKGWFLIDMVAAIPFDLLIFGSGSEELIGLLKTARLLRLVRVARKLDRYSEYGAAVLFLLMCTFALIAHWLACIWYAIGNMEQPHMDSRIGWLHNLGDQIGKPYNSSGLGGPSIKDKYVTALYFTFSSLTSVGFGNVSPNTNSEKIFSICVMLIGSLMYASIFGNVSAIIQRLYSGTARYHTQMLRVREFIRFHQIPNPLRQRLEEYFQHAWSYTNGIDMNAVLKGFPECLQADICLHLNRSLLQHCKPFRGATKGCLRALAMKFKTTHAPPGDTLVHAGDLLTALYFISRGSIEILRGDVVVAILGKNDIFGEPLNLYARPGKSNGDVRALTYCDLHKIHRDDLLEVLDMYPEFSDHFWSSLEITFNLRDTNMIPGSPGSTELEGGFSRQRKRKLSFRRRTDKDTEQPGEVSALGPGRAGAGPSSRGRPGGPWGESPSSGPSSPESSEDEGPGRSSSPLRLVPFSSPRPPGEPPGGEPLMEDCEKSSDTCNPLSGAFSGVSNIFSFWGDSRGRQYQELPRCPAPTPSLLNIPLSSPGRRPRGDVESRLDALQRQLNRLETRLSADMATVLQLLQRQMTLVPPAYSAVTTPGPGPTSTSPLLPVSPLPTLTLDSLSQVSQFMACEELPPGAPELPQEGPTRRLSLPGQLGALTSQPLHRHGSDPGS
Series [2] can be described thus: Hepatic extraction ratio in human liver microsomes. It is filed as ADME, microsome. The note with it: read-out: ERH.
Series [3] can be described thus: Hepatic extraction ratio in rat liver microsomes. It is filed as ADME, microsome. The note with it: read-out: ERH.
A short description of series [4]: Plasma protein binding in human. It is filed as ADME, cell-free. The note with it: read-out: PPB (converted).
Series [5] deals with T2, Hexokinase-4 (Homo sapiens). The experiment in a line: Potency index, ratio of (S)-N-(5-chlorothiazol-2-yl)-2-(4-(cyclopropylsulfonyl)-6-methyl-2-oxopyridin-1(2H)-yl)-3-(tetrahydro-2H-pyran-4-yl)propanamide EC50 to compound EC50 for full length human C-terminal FLAG-tagged glucokinase (12 to 465 residues).
In series [6] the test system is Mus musculus. As to the kind of experiment: Antidiabetic activity in ob/ob mouse assessed as reduction in glucose excursion at 30 mg/kg, po by oral glucose tolerance test. It is filed as functional, organism-based.
The nature of series [7]: Clearance in orally dosed rat. The note with it: in vivo, po. It is filed as ADME, organism-based.
The test system of series [8] is Mus musculus. As to the kind of experiment: Antidiabetic activity in C57BL/6J mouse assessed as glucose lowering effect at 30 mg/kg, po. It is filed as functional, organism-based.
Series [9] can be described thus: Oral bioavailability in rat. It is filed as ADME, organism-based. The conditions noted are these: in vivo.
The nature of series [10]: Half life in orally dosed rat. It is filed as ADME, organism-based. The note with it: in vivo, po.
The next series relates to Rattus norvegicus. The experiment in a line: Volume of distribution in orally dosed rat. It is filed as ADME, organism-based. The conditions noted are these: in vivo, po.
A short description of series [11]: Hepatic extraction ratio in mouse liver microsomes. It is filed as ADME, microsome. The conditions noted are these: read-out: ERH.

In the case of `O=C(Nc1ncc(Cl)s1)C(CC1CCOCC1)n1ncc2ccc(S(=O)(=O)C3CC3)cc21` (racemic), the EC50 on Hexokinase-4 is above 100000 nM. In addition, the %max in [1] came to 0%.

For `O=C(Nc1ncc(F)s1)[C@H](CC1CCOCC1)n1ncc2c(S(=O)(=O)C3CC3)ccnc21`, the inhibition at 10 µM on hERG (KCNH2) stood at 71%. Moreover, the concentration for a half-maximal effect (EC50) on Hexokinase-4 was 120 nM. Besides, in series [1], the %max amounted to 74%.

With `O=C(Nc1ncc(F)s1)[C@H](CC1CCOCC1)n1ncc2c(S(=O)(=O)C3CC3)cc(F)cc21`, 10 µM produced 77% inhibition against hERG (KCNH2). In addition, the EC50 on Hexokinase-4 was determined as 120 nM. Also, in series [1], the %max was found to be 91%.

`O=C(Nc1cnccn1)[C@H](CC1CCOCC1)n1ncc2c(S(=O)(=O)C3CC3)cccc21`: 10 µM produced 45% inhibition at hERG (KCNH2). Besides, on Hexokinase-4, the EC50 turned out to be 790 nM. For the same compound, the %max in [1] stood at 95%.

As for `O=C(Nc1ncc(Cl)s1)[C@H](CC1CCOCC1)n1cc(S(=O)(=O)C2CC2)cn1`, the hepatic extraction ratio in series [2] and in [3] was 0.31 to 0.39 throughout. Besides, the concentration for a half-maximal effect (EC50) at Hexokinase-4 came out at 2000 nM. Besides, the %max in series [1] came to 35%.

Consider `NC(=O)c1cccnc1NC(=O)C(CC1CCOCC1)n1ncc2c(S(=O)(=O)C3CC3)cccc21` (racemic), for which, on hERG (KCNH2), testing at 10 µM gave an inhibition of 29%. In addition, the EC50 on Hexokinase-4 was 200 nM. Further, the %max in [1] was determined as 38%.

For the compound `Cn1ccc(NC(=O)C(CC2CCOCC2)n2ncc3c(S(=O)(=O)C4CC4)cccc32)n1` (racemic), on hERG (KCNH2), 10 µM produced 23% inhibition. Moreover, the EC50 at Hexokinase-4 amounted to 1200 nM. For the same compound, the %max in series [1] worked out at 79%.

`O=C(Nc1ncc(F)s1)C(CC1CCOCC1)n1cc(S(=O)(=O)c2cccc(Cl)c2)cn1` (racemic): at Hexokinase-4, the concentration for a half-maximal effect (EC50) was above 100000 nM. Also, the %max in series [1] was determined as 0%.

On to `O=C(Nc1ncc(Cl)s1)[C@H](CC1CCCC1)n1cc(S(=O)(=O)C2CC2)cn1`, for which the hepatic extraction ratio in series [2] was determined as 0.91; in series [3], 0.85. The EC50 at Hexokinase-4 stood at 630 nM. The %max in series [1] was 88%.

`Cc1ccc(NC(=O)C(CC2CCOCC2)n2ncc3c(S(=O)(=O)C4CC4)cccc32)nn1` (racemic) returned an inhibition at 10 µM at hERG (KCNH2) of 57%. Besides, the concentration giving a half-maximal response (EC50) at Hexokinase-4 was found to be 7900 nM. In [1], the %max was determined as 50%.

Consider `CC(C)(C)S(=O)(=O)c1cnn(C(CC2CCOCC2)C(=O)Nc2ncc(F)s2)c1` (racemic), for which the half-maximal effective concentration (EC50) at Hexokinase-4 is above 100000 nM. Moreover, the %max in [1] is 0%.

Take `O=C(Nc1ncc(Cl)s1)[C@H](CC1CCOCC1)n1ncc2c(S(=O)(=O)C3CC3)cccc21`: in [4], the fraction unbound was 0.0004. Further, the hepatic extraction ratio in series [2] is 0.67. For the same compound, the inhibition at 10 µM against hERG (KCNH2) fell in the range of 85 to 93%. The Ratio EC50 in series [5] turned out to be 40. For the same compound, the concentration for a half-maximal effect (EC50) at Hexokinase-4 turned out to be 31 nM. In addition, in series [1], the %max was 65%.

With `O=C(Nc1ncc(Cl)s1)[C@H](CC1CCOCC1)n1ncc2cc(S(=O)(=O)C3CC3)ccc21`, at Hexokinase-4, the EC50 was 500 nM. In [1], the %max amounted to 26%.

As to `O=C(Nc1ncc(F)s1)[C@H](CC1CCOCC1)n1ncc2c(S(=O)(=O)C3CC3)cccc21`, the inhibition at 10 µM against hERG (KCNH2) stood at 84%. Moreover, on Hexokinase-4, the half-maximal effective concentration (EC50) was 40 nM. Further, the %max in series [1] was determined as 83%.

Take `O=C(Nc1ncc(F)s1)[C@H](CC1CCOCC1)n1ncc2c(S(=O)(=O)C3CC3)cc(O)cc21`: the EC50 at Hexokinase-4 is 100 nM. In addition, the %max in [1] was 96%.

On hERG (KCNH2), `Cc1nnc(NC(=O)C(CC2CCOCC2)n2ncc3c(S(=O)(=O)C4CC4)cccc32)s1` (racemic) displayed an inhibition at 10 µM of 23%. Further, the EC50 at Hexokinase-4 came out at 5000 nM. The %max in series [1] worked out at 74%.

Take `N#Cc1cc(S(=O)(=O)C2CC2)c2cnn(C(CC3CCOCC3)C(=O)Nc3ncc(F)s3)c2c1` (racemic): the inhibition at 10 µM against hERG (KCNH2) is 83%. Further, the EC50 at Hexokinase-4 is 100 nM. Further, the %max in [1] stood at 74%.

The compound `O=C(Nc1ccn(CCO)n1)C(CC1CCOCC1)n1ncc2c(S(=O)(=O)C3CC3)cccc21` (racemic) came in with an inhibition at 10 µM on hERG (KCNH2) of 12.5%. At Hexokinase-4, the EC50 amounted to 3100 nM. The %max in series [1] was 73%.

Compound `COc1cc(S(=O)(=O)C2CC2)c2cnn([C@@H](CC3CCOCC3)C(=O)Nc3ncc(F)s3)c2c1` came in with an inhibition at 10 µM on hERG (KCNH2) of 78%. In addition, the EC50 on Hexokinase-4 was 100 nM. In series [1], the %max was found to be 100%.

For `Cc1cc(S(=O)(=O)C2CC2)cc(=O)n1[C@@H](CC1CCOCC1)C(=O)Nc1ncc(Cl)s1`, the EC50 on Hexokinase-4 came out at 1200 nM. Also, the outcome in the series on Mus musculus [6] was Active. The %max in [1] worked out at 77%.

For `NC(=O)c1cnc(NC(=O)C(CC2CCOCC2)n2ncc3c(S(=O)(=O)C4CC4)cccc32)s1` (racemic), the inhibition at 10 µM against hERG (KCNH2) was 26%. Also, the EC50 on Hexokinase-4 was determined as 1600 nM. In series [1], the %max was 49%.

In the case of `O=C(Nc1ncc(F)s1)[C@H](CC1CCOCC1)n1ncc2c(S(=O)(=O)C3CC3)cncc21`, the hepatic extraction ratio in series [2] is 0.59; in [3], 0.33; in [11], 0.56. Further, the CL/F in series [7] was determined as 29 mL/min/kg. For the same compound, the inhibition at 10 µM at hERG (KCNH2) was found to be 46%. In addition, the outcome with Mus musculus [8] and in the series on Mus musculus [6] was Active. Besides, the bioavailability in series [9] came to 51%. Also, the EC50 on Hexokinase-4 worked out at 80 nM. In series [10], this compound had a half-life of 4.3 h. Also, in series [1], the %max was found to be 71%. The compound further came in with a Vd in the series with Rattus norvegicus of 1.9 L/kg.

Regarding `O=C(Nc1ncc(F)s1)[C@H](CC1CCOCC1)n1cc(S(=O)(=O)C2CC2)cn1`, the hepatic extraction ratio in series [2] and in series [3] was 0.31 to 0.39 in each case. For the same compound, at Hexokinase-4, the EC50 turned out to be 4000 nM. Further, in series [1], the %max came to 37%.

Consider `O=C(Nc1ncc(F)s1)[C@H](CC1CCCC1)n1cc(S(=O)(=O)C2CC2)cn1`, for which the hepatic extraction ratio came to 0.91 in series [2] and 0.85 in series [3]. Also, at Hexokinase-4, the EC50 turned out to be 630 nM. Also, the %max in series [1] is 73%.

For `NC(=O)c1cc(S(=O)(=O)C2CC2)c2cnn([C@@H](CC3CCOCC3)C(=O)Nc3ncc(F)s3)c2c1`, on Hexokinase-4, the concentration for a half-maximal effect (EC50) was 100 nM. In series [1], the %max was found to be 97%.

For `O=C(Nc1ncc(Cl)s1)[C@H](CC1CCOCC1)n1cc(S(=O)(=O)C2CCCC2)cn1`, the EC50 at Hexokinase-4 was 1000 nM. Also, the %max in series [1] stood at 32%.
